Test: In vitro release of solid steroid from Carb-S/PEG-DA crosslinked (CARBYLAN-SX) gels into PBS
Format: physicochemical
Details: solid drug in gel, 37° C., after 72 hours of incubation
Method: A 1.75% (w/v) solution of the Carb-S (Example 2) was prepared using deionized water and the pH was adjusted to 7.4. […] A 4% (w/v) polyethylene glycol diacrylate (PEG-DA) [Mw=3400] solution was prepared using deionized water and the pH was adjusted to 7.4. […] After vortexing the mixture, 0.2 mL of the mixture was added to a 15 mL plastic centrifuge tube. […] The samples were kept at 37° C. by placing the shaker in an incubation oven that was set at 37° C. At specific intervals (24 hrs), the PBS buffer supernatant was removed from the tube and the steroid concentration in the PBS buffer was determined using UV absorption spectroscopy. […] 10 mL fresh PBS buffer was added to each tube and the tubes were returned to the shaker. This gelation and release testing was repeated in a similar manner using solid beclamethasone dipropionate (10 mg). […] Controlled Release, 1 (2000)).

CCC(=O)OCC(=O)[C@@]1(OC(=O)CC)[C@@H](C)C[C@H]2[C@@H]3CCC4=CC(=O)C=C[C@]4(C)[C@@]3(Cl)[C@@H](O)C[C@@]21C [beclomethasone diproprionate]
Drug detected (released) from the CARBYLAN-SX polymer matrix: less than 5%

Source: patent publication US8784893B2, “Polymer formulations for delivery of bioactive agents” (Carbylan Therapeutics, Inc., priority 2007, dated 2014)
